Data: PubChem BioAssay (NCI)
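Each compound was tested at five concentrations against cells in 96-well plates for 48 hours. TGI denotes the concentration required for complete inhibition of growth.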

How the values were obtained:
Experiment in all cases: DTP human tumour cell line panel, 48 h
DMS 114 small cell lung = test system: DMS 114 small cell lung
DMS 273 small cell lung = test system: DMS 273 small cell lung
KM20L2 colon = test system: KM20L2 colon
LXFL 529 NSCLC = test system: LXFL 529 NSCLC
M19-MEL melanoma = test system: M19-MEL melanoma
XF 498 CNS = test system: XF 498 CNS
HOP-18 NSCLC = test system: HOP-18 NSCLC
RXF-631 renal = test system: RXF-631 renal
SNB-78 CNS = test system: SNB-78 CNS

Q: What does the source list for `C/C=C1\C=C(OC)CN(CCc2c[nH]c3ccccc23)C1`?
A: TGI (DMS 114 small cell lung): > 100 µM; TGI (DMS 273 small cell lung): > 100 µM; TGI (KM20L2 colon): > 100 µM; TGI (LXFL 529 NSCLC): > 100 µM; TGI (M19-MEL melanoma): > 100 µM; TGI (XF 498 CNS): > 100 µM

Q: `Cc1nc(C(N)=S)sc1C(=O)CC(=O)C(=O)Nc1ccccc1[N+](=O)[O-]` was tested. Which TGI (DMS 114 small cell lung) did it give?
A: The TGI was > 100 µM.

Q: And the TGI (DMS 273 small cell lung)?
A: Its TGI is > 100 µM.

Q: And the TGI (HOP-18 NSCLC)?
A: Its TGI is > 100 µM.

Q: What about the TGI (KM20L2 colon) of the same compound?
A: Its TGI is > 100 µM.

Q: What about the TGI (LXFL 529 NSCLC) of the same compound?
A: The TGI was > 100 µM.

Q: And the TGI (M19-MEL melanoma)?
A: The TGI was > 100 µM.

Q: What about the TGI (RXF-631 renal) of the same compound?
A: Its TGI is > 100 µM.

Q: What about the TGI (SNB-78 CNS) of the same compound?
A: Its TGI is > 100 µM.

Q: Which results are given for `CC(=O)OC[C@]1(C)CCCC2(C)C1CCC1C=C(C)[C@H]3CCC12C3` (some centres undefined)?
A: TGI (KM20L2 colon): > 100 µM; TGI (LXFL 529 NSCLC): > 100 µM; TGI (M19-MEL melanoma): > 100 µM; TGI (SNB-78 CNS): > 100 µM

Q: With `CCCCCCCCCCCCCCCCCCN(C)C(COC)COP(=O)([O-])OCC[N+](C)(C)C` (centres undefined) as the compound, how does the TGI (DMS 273 small cell lung) read?
A: Its TGI is 2.92 µM.

Q: And the TGI (HOP-18 NSCLC)?
A: The TGI was 17 µM.

Q: What about the TGI (KM20L2 colon) of the same compound?
A: The TGI was 6.92 µM.

Q: What about the TGI (LXFL 529 NSCLC) of the same compound?
A: The TGI was 15.4 µM.

Q: What about the TGI (M19-MEL melanoma) of the same compound?
A: Its TGI is 12.9 µM.

Q: What about the TGI (RXF-631 renal) of the same compound?
A: Its TGI is 26 µM.

Q: What about the TGI (SNB-78 CNS) of the same compound?
A: Its TGI is 18.3 µM.

Q: And the TGI (XF 498 CNS)?
A: The TGI was 39.8 µM.

Q: Which results are given for `Cc1ccccc1NC(=O)c1c(C)oc2c1C(=O)c1ccccc1C2=O`?
A: TGI (DMS 114 small cell lung): 68 µM; TGI (DMS 273 small cell lung): > 100 µM; TGI (KM20L2 colon): > 100 µM; TGI (LXFL 529 NSCLC): > 55.9 µM; TGI (M19-MEL melanoma): 26.6 µM; TGI (SNB-78 CNS): 5.98 µM; TGI (XF 498 CNS): > 70 µM

Q: Which results are given for `COc1ccc2cc3[nH]c(=O)cc(O)c3cc2c1OC`?
A: TGI (DMS 114 small cell lung): > 100 µM; TGI (HOP-18 NSCLC): > 100 µM; TGI (KM20L2 colon): > 100 µM; TGI (LXFL 529 NSCLC): > 100 µM; TGI (M19-MEL melanoma): > 100 µM; TGI (RXF-631 renal): > 100 µM; TGI (SNB-78 CNS): > 100 µM; TGI (XF 498 CNS): > 100 µM

Q: `CC(=O)NC1=C(NC(C)(C)C)C(=O)c2ccccc2C1=O` was tested. Which TGI (DMS 114 small cell lung) did it give?
A: The TGI was 54.3 µM.

Q: And the TGI (DMS 273 small cell lung)?
A: Its TGI is 45.4 µM.

Q: And the TGI (HOP-18 NSCLC)?
A: Its TGI is 28.4 µM.

Q: And the TGI (KM20L2 colon)?
A: The TGI was 38 µM.

Q: What about the TGI (LXFL 529 NSCLC) of the same compound?
A: Its TGI is 31.7 µM.

Q: What about the TGI (M19-MEL melanoma) of the same compound?
A: The TGI was 28.7 µM.

Q: What about the TGI (SNB-78 CNS) of the same compound?
A: The TGI was 99.1 µM.

Q: And the TGI (XF 498 CNS)?
A: The TGI was 23.1 µM.
